{"source": "patent US12195427B2", "about": "“MASP-2 inhibitors and methods of use” (priority 2018, dated 2025)", "key": {"[1]": {"biological_target": "MASP-2 (CCP1-CCP2-SP) (Homo sapiens (Human), UniProt O00187)", "sequence (O00187 445-686)": "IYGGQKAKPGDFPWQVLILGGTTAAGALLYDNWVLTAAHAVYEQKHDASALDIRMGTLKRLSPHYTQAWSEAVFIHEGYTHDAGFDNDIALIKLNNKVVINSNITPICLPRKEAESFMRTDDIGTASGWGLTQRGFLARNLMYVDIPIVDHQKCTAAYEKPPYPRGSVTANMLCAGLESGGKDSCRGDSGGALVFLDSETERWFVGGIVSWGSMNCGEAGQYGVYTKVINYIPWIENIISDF", "assay": "Enzymatic Assay for MASP-2 (fluorogenic substrate)", "assay_type": "biochemical"}, "[2]": {"biological_target": "human α-thrombin (Homo sapiens (Human), UniProt P00734)", "assay": "Enzymatic Assay for Thrombin (Boc-VPR-AMC)", "assay_type": "biochemical"}, "[3]": {"tested_on": "Lectin Pathway", "assay": "Lectin Pathway Activation Assay in Human Serum (mannan-coated ELISA, C3c detection)", "assay_type": "biochemical", "conditions": "1% human serum", "description": "Microtiter ELISA plate was coated with mannan from Saccharomyces cerevisiae (Sigma-Aldrich, M7504) for overnight at 4° C. in coating buffer [15 mM Na2CO3, 35 mM NaHCO3]."}, "[4]": {"biological_target": "MASP-2 CCP2-SP (Homo sapiens (Human), UniProt O00187)", "sequence (O00187 445-686)": "as above", "sequence (O00187 364-432 partner)": "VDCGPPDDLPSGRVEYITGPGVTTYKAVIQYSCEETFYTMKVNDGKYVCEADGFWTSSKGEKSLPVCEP", "assay": "MASP-2 co-crystallization, X-ray crystallography and structure analysis (H-bonds, van der Waals contacts)", "set-up": "van der Waals contact distance, MASP-2 HIS 483 atom CD2 / van der Waals contact distance, MASP-2 HIS 483 atom NE2 / van der Waals contact distance, SER 654 C to compound atom / van der Waals contact distance, SER 654 O to compound atom / van der Waals contact distance, TRP 655 C to compound atom / van der Waals contact distance, MASP-2 GLY 528 atom CA / van der Waals contact distance TRP 655 atom CZ3 / van der Waals contact distance TRP 655 atom N / van der Waals contact distance TRP 655 atom CE3 / van der Waals contact distance GLY 656 atom C / van der Waals contact distance GLY 656 atom CA / van der Waals contact distance GLY 656 atom O / van der Waals contact distance, MASP-2 TYR 607 atom CD1 / van der Waals contact distance, MASP-2 PRO 606 atom O / d(C3,CA1) / d(CA1,N1)2 / d(H4,O1) / d(H4,O2) / d(O1,O2) / d(CA1,O2) / d(CA6,O1) / d(CA6,O2) / d(CA1,C5) / d(O2,H3) / d(N2,C2) / d(CA5,N2) / d(N2,C4) / d(N2,C6) / d(N2,CA3) / d(N2,O3) / d(O4,H2): unit not given beside the values", "procedure,_shortened": "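Soaked crystals of recombinant CCP2-SP (E. coli) yield the structures, phased by molecular replacement on 1Q3X pieces. Hydrophobic or nonbonded contacts can also cover atom pairs that are potential hydrogen bonds.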"}}, "note": "Where a name gives a salt, the structure may show the parent alone.", "data": [{"molecule": "COc1cc(C[C@@H]2CN[C@@H](C(=O)N[C@@H](C)C(=O)NCc3cc(Cl)ccc3-n3cnnn3)C2)cc(OC)c1", "note": "[compound 1419, (2R,4S)—N—((S)-1-((5-Chloro-2-(1H-tetrazol-1-yl)benzyl)amino)-1-oxopropan-2-yl)-4-(3,5-dimethoxybenzyl)pyrrolidine-2-carboxamide Trifluoroacetate salt]", "values": [{"measurement": "Ki", "setting": "[1]", "result": "< 500", "unit": "nM"}, {"measurement": "Ki", "setting": "[2]", "result": "< 500", "unit": "nM"}, {"measurement": "IC50", "setting": "[3]", "result": "< 50", "unit": "nM"}]}, {"molecule": "C[C@H](NC(=O)[C@H]1Cc2c([nH]c3ccccc23)CN1)C(=O)NCc1ccc(C(=N)N)cc1", "note": "[compound 1097]", "values": [{"measurement": "Ki", "setting": "[1]", "result": "< 500", "unit": "nM"}, {"measurement": "Ki", "setting": "[2]", "result": "< 500", "unit": "nM"}, {"measurement": "H-bond distance to MASP-2 ASP 627 atom OD2", "setting": "[4]; Table A1 (H-Bonds), ASP 627 OD2", "result": 2.74}, {"measurement": "H-bond distance to MASP-2 GLY 656 atom N", "setting": "[4]; Table A1 (H-Bonds), GLY 656 N", "result": 3.12}, {"measurement": "H-bond distance to MASP-2 GLY 656 atom O", "setting": "[4]; Table A1 (H-Bonds), GLY 656 O", "result": 2.98}, {"measurement": "H-bond distance to MASP-2 SER 628 atom O", "setting": "[4]; Table A1 (H-Bonds), SER 628 O", "result": 3.03}, {"measurement": "H-bond distance to MASP-2 SER 654 atom O", "setting": "[4]; Table A1 (H-Bonds), SER 654 O", "result": 2.81}, {"measurement": "H-bond distance to MASP-2 SER 657 atom O", "setting": "[4]; Table A1 (H-Bonds), SER 657 O", "result": 2.74}, {"measurement": "van der Waals contact distance, MASP-2 HIS 483 atom CD2", "setting": "[4]; Table A2-1", "result": 3.63}, {"measurement": "van der Waals contact distance, MASP-2 HIS 483 atom NE2", "setting": "[4]; Table A2-1", "result": 3.53}, {"measurement": "van der Waals contact distance, MASP-2 PRO 606 atom C", "setting": "[4]; Table A2-4", "result": 3.74}, {"measurement": "van der Waals contact distance, MASP-2 PRO 606 atom CB", "setting": "[4]; Table A2-4", "result": 3.84}, {"measurement": "van der Waals contact distance, MASP-2 PRO 606 atom CG", "setting": "[4]; Table A2-4", "result": 3.82}, {"measurement": "van der Waals contact distance, MASP-2 PRO 606 atom O", "setting": "[4]; Table A2-4", "result": 3.33}, {"measurement": "van der Waals contact distance, MASP-2 TYR 607 atom CA", "setting": "[4]; Table A2-4", "result": 3.79}, {"measurement": "van der Waals contact distance, MASP-2 amino acid atom to compound atom", "setting": "[4]; Table A2-9 second part, ARG 630, AA atoms N, NE, NH1", "result": 3.71}, {"measurement": "van der Waals contact distance, SER 654 C to compound atom", "setting": "[4]; Table A2-11", "result": 3.73}, {"measurement": "van der Waals contact distance GLY 656 atom C", "setting": "[4]; Table A2-13, MASP-2 GLY 656 C", "result": 3.46}, {"measurement": "van der Waals contact distance SER 657 atom C", "setting": "[4]; Table A2-14, MASP-2 SER 657 C, columns c12-c13 (inferred)", "result": 3.52}]}]}
